Reference: patent US11179452B2, “Antigen specific multi epitope vaccines” (priority 2006, dated 2021)
No end group written: not given here.

Key:
Type in all cases: cell-based, human
PBL = assay: Proliferation of PBL, DC indirect presentation (peptide-pulsed autologous DC)
Description: Human PBMC were separated from buffy coat samples of naive donors using Ficoll UNI-SEPmaxi tube. Separated cells were suspended in RPMI medium supplemented with 10% FCS, L-Glutamine, Sodium Pyruvate, MEM-EAGLE non-essential amino-acids, HEPES and Gentamycin Sulphate (Bet-Haemek Industries, IL) and cultivated for 4 h at 37° C. in a culture dish (Corning 150 mm×25 mm). Adherent cells were collected and cultured for 7 days in serum free DCCM-1 medium supplemented with L-Glutamine, huIL-4 (1000 IU/ml) (Cytolab IL) and GM-CSF-80 ug/ml (Cytolab IL). On day seven floating cells were collected and loaded with 50 ug/ml of examined peptide for 18 h at 37° C.
(§1) Proliferation analysis was conducted in three different methods. In all three methods, plates were cultured for 3-5 days under visual control and then 0.5 […]Cu/well of 3[H] (Amersham) was added for additional culture of to 18 h at 37° C. In the last step, plates were harvested and the radioactive counts were measured in a □ counter. • 1. DC indirect presentation: In the first method, 100 µl of 2×10^6 thawed PBL were placed in U-shape Bottom 96 well plate (Nunc) with RPMI medium supplemented with 5% H AB serum, L-Glutamine, Sodium Pyruvate, MEM-EAGLE non-essential amino-acids, HEPES and Gentamycin. At the next stage 100 µl of 25×10^4 peptide-pulsed DC were added to each three wells of PBL and underwent proliferation analysis as described above. • 2. PBL direct presentation: In the 2nd method, 100 µl of 2×10^6 PBL were placed in Flat Bottom 96 well plates (Corning) and stimulated with different concentrations (0.05 ug/ml-2 ug/ml) of peptides. In the next step the cells underwent proliferation analysis as described above. • 3. PBMC direct presentation: In third method PNMC were used under similar conditions as described for the second method.
In the first set of experiments, the 21mer ImMucin, its different 9mer epitopes and other control epitopes (Table 3) were evaluated in proliferation assays with the aim of finding their optimal mode of presentation, stimulated dose as well as their peak of activity (time wise).
To evaluate the most efficient method for priming of PBLs with the different peptides, the following methods were compared:
a. In-direct presentation of the peptide via Autologues-pulsed DC
(§2) Five experiments were performed according to the protocol described in material and methods with buffy-coat enriched PBLs obtained from six different naive donors (obtained from the Israeli blood bank).

PBMC = assay: Proliferation, direct presentation of peptide via PBMC (monocytes)
Description: as §1
b. Direct presentation of the peptides via PBMC i.e. monocytes
as §2

[1] = test system: PBLs (CD4+, CD8+, CD45RO+ T cells); assay: FACS analysis of T cell phenotype during repeated stimulation with ImMucin (FIG. 2)
Text: Thawed PBLs underwent 1st stimulation with ImMucin pulsed Autologues DC at a ratio of 20:1 and cultured for 7 days in dedicated T cell Medium. T cell medium contained RPMI medium supplemented with 10% FCS, L-Glutamine, Sodium Pyruvate, MEM-EAGLE non-essential amino-acids, HEPES and Gentamycin Sulphate (Bet-Haemek Industries, IL) as well as with 50 IU/ml of recombinant IL-7 (Cytolab IL). For the second stimulation, PBL were transferred to adherent autologues ImMucin-pulsed PBMC and cultured for additional 5 days in T cell Medium. At the end of the 5 days, medium was partial replaced with fresh medium containing 1 ug/ml of ImMucin and 50 IU/ml IL-2 for a third stimulation of 48 h at 37° C. Following the last stimulation ImMucin T cell line was checked for immune activation properties.
For FACS analysis, PBLs were suspended at a final concentration of 20×10^6 and 50 µl were transfer into FACS tube (Falcon) in Blocker solution (PBS with 3% FCS and 0.1% Sodium Azide). 10 µl of fluorochrome-conjugate anti-CD4, anti-CD8, and anti-CD45RO (eBioscience) were added for 30 min on ice at 0° C. in the Dark. After the incubation cell were washed with 2 ml of the blocker solution and re suspended in 0.5 ml of Phosphate buffer saline (PBS). Samples were analyzed in a FACS-sort machine (BD) for positive florescence.
The ability of ImMucin to propagate a subpopulation of CD4^+ and CD8^+ T cells was further analyzed, and in particular the ability of ImMucin to transform naive CD4^+ and CD8^+ T cells into memory cells. This property was evaluated in a FACS analysis measuring the CD45RO^+ marker for memory T cells on CD4^+ and CD8^+ subpopulations (FIG. 2).

[2] = test system: lymphocytes from naive donors; assay: Proliferation assay, kinetics of lymphocyte activation as summarised in text (presentation mode not stated); details: summary of five experiments
Description: as §1
A different parameter for assessing the properties of ImMucin and the other VXL-peptide epitopes is by analyzing the time until a maximal peak of activity occurs and the optimal dose for maximal stimulation. Maximal peak of PBL activation is determined when <50% of the PBLs appear in clumps. In these experiments, the kinetic (time) in the proliferation of lymphocytes from the six naive donors stimulated at a fix dose of 0.05-1 ug/ml by ImMucin and other VXL-Peptides, was observed.

[3] = optimal dose required for PBL activation, average of 5 experiments, six donors

MTPGTQSPFFLLLLLTVLTVV [ImMucin]
PBL Index of stimulation (SI) via DC (PBL; naive donors, CPM sample / CPM control, representative of 5 experiments): 4
IS (SI of the peptides as indicated in Table 7) (PBL; one out of five experiments, six donors): 4
Optimal dose via DC (PBL; [3]): 12.5-25 × × 10e6/well
IS (as indicated in Table 12) (PBL; two donors): 2.8
Peak of Proliferation (Hours) via DC (PBL; visual inspection by light microscopy daily during 5 days, average of 5 experiments): 96 h
PBL Index of stimulation (SI) via PBMC (PBMC; naive donors, representative of 5 experiments): 2
Optimal dose via PBMC (PBMC; [3]): 0.05 to 1 µg/mL
Peak of Proliferation (Hours) via PBMC (PBMC; visual inspection daily during 5 days, average of 5 experiments): 120 h
increase in percentage of memory CD45RO+ cells ([1]; ImMucin activation): two fold
percentage of CD8+ T cells ([1]; after repeated stimulation with ImMucin, from 15% before): 36%
percentage of CD4+ T cells ([1]; after repeated stimulation with ImMucin, from 43% before): 85%
peak of proliferation / maximum stimulation [2]: ~96 h
